Where two headings read alike, the source gives them in different places.
Columns and labels:
[1] = test system: HT29; experiment: cells; format: cell-based; conditions: for IC50: Homo sapiens, HT-29, 2 h
[2] = test system: H460; experiment: cells; format: cell-based; conditions: for IC50: Homo sapiens, NCI-H460, 2 h

SMILES	HT29 HCR: Air/N2 [1]	IC50 ([1]; read-out: 2 hr Air HT29 IC50)	IC50 ([1]; read-out: 2 hr N2 HT29 IC50)	H460 HCR: Air/N2 [2]	IC50 ([2]; read-out: 2 hr Air H460 IC50)	IC50 ([2]; read-out: 2 hr N2 H460 IC50)
CCCN(CCCl)c1ccc(OS(=O)(=O)C(Cc2ncco2)c2ccsc2[N+](=O)[O-])cc1 (stereo not shown) [TH-1422]	>3.3	> 300 µM	90 µM	88	35 µM	0.4 µM
O=[N+]([O-])c1sccc1C(Cc1ccc(C(F)(F)F)nc1)S(=O)(=O)Oc1ccc(N(CCCl)CCCl)cc1 (stereo not shown) [TH-1423]		> 300 µM	> 300 µM	750	300 µM	0.4 µM
O=[N+]([O-])c1sccc1C(Cc1ccc(N2CCOCC2)nc1)S(=O)(=O)Oc1ccc(N(CCCl)CCCl)cc1 (stereo not shown) [TH-1426]		> 300 µM	> 300 µM	950	190 µM	0.2 µM
O=[N+]([O-])c1sccc1C(Cc1ccc2nccn2c1)S(=O)(=O)Oc1ccc(N(CCCl)CCCl)cc1 (stereo not shown) [TH-1435, 3-(4-(N,N-bis-(2-Chloroethyl)amino)phenoxysulfonyl-(imidazopyidin-5-yl-methyl))methyl-2-nitrothiophene]	>35	> 300 µM	8.5 µM	30	18 µM	0.6 µM
CNc1ccc(CC(c2ccsc2[N+](=O)[O-])S(=O)(=O)Oc2ccc(N(CCCl)CCCl)cc2)cn1 (stereo not shown) [TH-1442]	66	230 µM	3.5 µM	116	93 µM	0.8 µM
O=[N+]([O-])c1sccc1C(Cc1ccc2c(c1)nnn2CCO)S(=O)(=O)Oc1ccc(N(CCCl)CCCl)cc1 (stereo not shown) [TH-1451, 3-(4-(N,N-bis-(2-Chloroethyl)amino)phenoxysulfonyl-(1-(2-hydroxyethyl)benzotriazol-5-yl-methyl))methyl-2-nitrothiophene]	42	250 µM	6 µM	110	110 µM	1 µM
O=[N+]([O-])c1sccc1C(Cc1cn2ccccc2n1)S(=O)(=O)Oc1ccc(N(CCCl)CCCl)cc1 (stereo not shown) [TH-1456, 3-(4-(N,N-bis-(2-Chloroethyl)amino)phenoxysulfonyl-(imidazopyridin-2-yl-methyl))methyl-2-nitrothiophene]	>60	> 300 µM	5 µM	100	30 µM	0.3 µM
O=[N+]([O-])c1sccc1C(Cc1ccc2nnn(CCO)c2c1)S(=O)(=O)Oc1ccc(N(CCCl)CCCl)cc1 (stereo not shown) [TH-1457, 3-(4-(N,N-bis-(2-Chloroethyl)amino)phenoxysulfonyl-(1-(2-hydroxyethyl)benzotriazol-6-yl-methyl))methyl-2-nitrothiophene]	45	180 µM	4 µM	240	120 µM	0.5 µM
C[C@H](O)C(=O)Nc1ccc(CC(c2ccsc2[N+](=O)[O-])S(=O)(=O)Oc2ccc(N(CCCl)CCCl)cc2)cn1 (stereo partly shown) [TH-1465, 3-(4-(N,N-bis-(2-Chloroethyl)amino)phenoxysulfonyl-(2-(lactic acylamino)pyridine-5-yl-methyl))methyl-2-nitrothiophene]	30	210 µM	7 µM	50	40 µM	0.8 µM
COCC(=O)N(C)c1ccc(CC(c2ccsc2[N+](=O)[O-])S(=O)(=O)Oc2ccc(N(CCCl)CCCl)cc2)cn1 (stereo not shown) [TH-1478, 3-(4-(N,N-bis-(2-Chloroethyl)amino)phenoxysulfonyl-(2-(N-methoxyacetyl-N-methylamino)pyridin-5-yl-methyl))methyl-2-nitrothiophene]	11	220 µM	20 µM	300	120 µM	0.4 µM
COCC(=O)Nc1ccc(CC(c2ccsc2[N+](=O)[O-])S(=O)(=O)Oc2ccc(N(CCCl)CCCl)cc2)cc1 (stereo not shown) [TH-1479]	2.7	> 300 µM	110 µM	325	260 µM	0.8 µM
O=[N+]([O-])c1sccc1C(Cc1ccc(O[C@H]2CCCC[C@@H]2O)nc1)S(=O)(=O)Oc1ccc(N(CCCl)CCCl)cc1 (stereo partly shown) [TH-1487]	1	240 µM	280 µM	64	51 µM	0.8 µM
O=[N+]([O-])c1sccc1C(COC1CCCCC1)S(=O)(=O)Oc1ccc(N(CCCl)CCCl)cc1 (stereo not shown) [TH-1521]	>3.2	> 300 µM	93 µM	180	234 µM	1.3 µM
CCN(CC)CC#CCC(c1ccsc1[N+](=O)[O-])S(=O)(=O)Oc1ccc(N(CCCl)CCCl)cc1 (stereo not shown) [TH-1545]	12	60 µM	5 µM	51	102 µM	2 µM
